Measurements taken from ChEMBL document CHEMBL4118241, “Structural basis for the selective inhibition of activated thrombin-activatable fibrinolysis inhibitor (TAFIa) by a selenium-containing inhibitor with chloro-aminopyridine as a basic group” (Bioorg Med Chem Lett, 2018).
pIC50: −log10 of the molar value.

What was measured:
Carboxypeptidase B2 [1] = target: T1, Carboxypeptidase B2 (Homo sapiens, UniProt Q96IY4); assay: Inhibition of human plasma activated thrombin-activatable fibrinolysis inhibitor after 10 mins in presence of DTT
T1 sequence (Q96IY4 whole entry): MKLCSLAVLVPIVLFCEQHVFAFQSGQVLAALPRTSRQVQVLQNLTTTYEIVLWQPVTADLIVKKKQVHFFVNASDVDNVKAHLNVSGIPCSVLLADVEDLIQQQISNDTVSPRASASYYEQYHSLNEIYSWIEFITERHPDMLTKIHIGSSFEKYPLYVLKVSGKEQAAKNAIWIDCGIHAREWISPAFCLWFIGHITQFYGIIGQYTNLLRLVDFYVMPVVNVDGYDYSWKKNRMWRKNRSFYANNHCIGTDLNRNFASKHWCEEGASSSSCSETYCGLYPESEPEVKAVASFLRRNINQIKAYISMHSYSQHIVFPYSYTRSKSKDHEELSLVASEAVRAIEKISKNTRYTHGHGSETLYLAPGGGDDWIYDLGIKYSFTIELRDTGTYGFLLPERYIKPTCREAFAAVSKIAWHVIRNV

Carboxypeptidase B2 [2] = target: T1, Carboxypeptidase B2; assay: Inhibition of human plasma activated thrombin-activatable fibrinolysis inhibitor after 10 mins in absence of DTT
Carboxypeptidase B [3] = target: T2, Carboxypeptidase B (Sus scrofa, UniProt P09955); assay: Inhibition of porcine pancreas carboxypeptidase B after 10 mins in presence of DTT
T2 sequence (P09955 whole entry): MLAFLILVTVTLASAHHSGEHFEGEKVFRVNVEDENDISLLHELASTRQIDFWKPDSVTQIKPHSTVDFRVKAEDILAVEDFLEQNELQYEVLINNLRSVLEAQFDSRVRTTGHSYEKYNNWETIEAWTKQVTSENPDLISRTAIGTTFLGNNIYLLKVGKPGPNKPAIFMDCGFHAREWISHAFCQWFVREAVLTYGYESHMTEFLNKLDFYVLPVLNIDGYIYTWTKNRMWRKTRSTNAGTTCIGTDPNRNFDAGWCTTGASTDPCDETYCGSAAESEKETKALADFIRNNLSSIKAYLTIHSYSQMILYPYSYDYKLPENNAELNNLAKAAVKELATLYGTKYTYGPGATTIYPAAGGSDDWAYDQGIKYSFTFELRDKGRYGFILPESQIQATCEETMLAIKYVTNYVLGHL

Carboxypeptidase B [4] = target: T2, Carboxypeptidase B; assay: Inhibition of porcine pancreas carboxypeptidase B after 10 mins in absence of DTT
[5] = target: T3, Carboxypeptidase N catalytic chain (Homo sapiens, UniProt P15169); assay: Inhibition of human carboxypeptidase N preincubated for 10 mins followed by hippuryl-lysine substrate addition measured after 30 mins in presence of DTT
T3 sequence (P15169 whole entry): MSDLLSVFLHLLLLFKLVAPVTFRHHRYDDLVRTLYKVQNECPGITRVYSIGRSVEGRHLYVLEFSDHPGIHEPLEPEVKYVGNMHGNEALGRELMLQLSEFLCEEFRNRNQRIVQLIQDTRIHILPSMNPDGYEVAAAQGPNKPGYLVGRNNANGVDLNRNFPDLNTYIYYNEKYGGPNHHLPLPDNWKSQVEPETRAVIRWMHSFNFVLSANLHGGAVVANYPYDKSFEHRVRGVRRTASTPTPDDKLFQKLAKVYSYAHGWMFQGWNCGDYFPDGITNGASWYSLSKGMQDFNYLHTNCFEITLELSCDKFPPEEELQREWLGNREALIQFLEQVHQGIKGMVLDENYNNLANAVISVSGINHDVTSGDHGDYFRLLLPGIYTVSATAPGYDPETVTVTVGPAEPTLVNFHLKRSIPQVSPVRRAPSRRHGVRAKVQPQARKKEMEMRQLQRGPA

Homo sapiens = species: Homo sapiens; assay: Selectivity ratio of IC50 for human carboxypeptidase N to IC50 for human plasma activated thrombin-activatable fibrinolysis inhibitor
[6] = target: T3, Carboxypeptidase N catalytic chain; assay: Inhibition of human carboxypeptidase N preincubated for 10 mins followed by hippuryl-lysine substrate addition measured after 30 mins in absence of DTT

For `CCC(=O)[Se]CC(Cc1cnc(N)c(Cl)c1)C(=O)O` (racemic), the pIC50 (Carboxypeptidase B2 [1]) was 8.82, the pIC50 (Carboxypeptidase B2 [2]) was 3.43 and the pIC50 (Carboxypeptidase B [3]) was 7.54. For the same compound, the pIC50 (Carboxypeptidase B [4]) was 5.60, the pIC50 [5] was < 3.42 and the Ratio IC50 (Homo sapiens) was > 250000. The pIC50 [6] was < 3.42.
